From ChEMBL document CHEMBL5053498, “Acremonamide, a Cyclic Pentadepsipeptide with Wound-Healing Properties Isolated from a Marine-Derived Fungus of the Genus Acremonium” (J Nat Prod, 2021)
Calls of active or inactive are those of the source.

Key:
[1] = tested on: HaCaT; test: Induction of cell migration in human HacaT cells at 12.5 uM measured after 24 hrs by transwell assay; assay type: functional
[2] = tested on: NIH3T3; test: Induction of cell migration in mouse NIH3T3 cells at 12.5 uM measured after 24 hrs by transwell assay; assay type: functional
[3] = Induction of cell invasion in human HacaT cells at 12.5 uM measured after 24 hrs by transwell assay; assay type: functional
[4] = Induction of cell invasion in mouse NIH3T3 cells at 12.5 uM measured after 24 hrs by transwell assay; assay type: functional
[5] = tested on: Caco-2; test: Cytotoxicity against human Caco-2 cells assessed as cell viability at 3.12 to 50 uM measured after 48 hrs by MTT assay; assay type: functional, cell-based; details: dose 3.12-50 µM
[6] = tested on: HaCaT; test: Cytotoxicity against human HacaT cells assessed as cell viability at 3.12 to 50 uM measured after 48 hrs by MTT assay; assay type: cell-based; details: dose 3.12-50 µM
[7] = tested on: NIH3T3; test: Cytotoxicity against mouse NIH3T3 cells assessed as cell viability at 3.12 to 50 uM measured after 48 hrs by MTT assay; assay type: cell-based; details: nih3t3, 48 h, dose 3.12-50 µM
[8] = tested on: HaCaT; test: Induction of wound healing in human HacaT cells assessed as increase in ACTC1 mRNA level at 12.5 uM by RT-PCR analysis; assay type: functional, cell-based
[9] = tested on: NIH3T3; test: Induction of wound healing in mouse NIH3T3 cells assessed as increase in ACTC1 mRNA level at 12.5 uM by RT-PCR analysis; assay type: functional, cell-based
[10] = tested on: HaCaT; test: Induction of wound healing in human HacaT cells assessed as increase in COL1A2 mRNA level at 12.5 uM by RT-PCR analysis; assay type: functional, cell-based
[11] = tested on: NIH3T3; test: Induction of wound healing in mouse NIH3T3 cells assessed as increase in COL1A2 mRNA level at 12.5 uM by RT-PCR analysis; assay type: functional, cell-based
[12] = species on record: Mus musculus; test: Induction of wound healing in BALB/c mouse assessed as reduction in wound area after 6 days; assay type: functional, organism-based; details: time 6.0 day

Measured: Activity

CC(C)[C@@H]1NC(=O)[C@@H](C(C)C)OC(=O)[C@H](C)N(C)C(=O)[C@H](Cc2ccccc2)NC(=O)[C@H](Cc2ccccc2)N(C)C1=O
inactive: [5]
Non-Toxic: [6] | [7]
50%: [1] | [2] | [3] | [4]
active: all other assays above
